Experimental data taken from patent US20240336611A1 (Insilico Medicine IP Limited, priority 2021, published 2024).

Assays:
[1] = Metabolic stability in human liver microsomes; assay type: in vitro ADME; settings: LM Clint (intrinsic clearance); 1 μM test compound, 0.5 mg protein/mL microsome, 37° C., up to 60 min
[2] = target: T1, TNIK kinase [amino acid sequence (1-367), Invitrogen] (Homo sapiens, UniProt Q9UKE5); experiment: TNIK kinase inhibition assay (Z-lyte FRET-peptide); assay type: biochemical; settings: 0.625 nM TNIK kinase, 2 μM Ser/Thr 7 peptide, 64 μM ATP, one hour at room temperature
T1 construct: purchased Invitrogen
T1 sequence (Q9UKE5 1-367): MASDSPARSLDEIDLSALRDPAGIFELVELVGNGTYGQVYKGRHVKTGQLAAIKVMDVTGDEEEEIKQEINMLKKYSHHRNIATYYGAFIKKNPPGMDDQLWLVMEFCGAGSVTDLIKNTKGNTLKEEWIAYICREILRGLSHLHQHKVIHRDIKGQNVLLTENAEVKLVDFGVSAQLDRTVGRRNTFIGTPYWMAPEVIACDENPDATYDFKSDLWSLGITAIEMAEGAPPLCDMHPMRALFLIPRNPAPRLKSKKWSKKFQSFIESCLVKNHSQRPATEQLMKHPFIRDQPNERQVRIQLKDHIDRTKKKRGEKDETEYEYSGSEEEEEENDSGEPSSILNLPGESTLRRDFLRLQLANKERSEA

SMILES | Human Liver Microsome (μM/min/mg) [1] | IC50 [2] [nM]
CN1C2CC1CN(c1ccc(NC(=O)c3csc(-c4c(-c5ccc(F)cc5)ncn4C4CC(F)(F)C4)n3)nc1)C2 [Compound 83, 2-(1-(3,3-difluorocyclobutyl)-4-(4-fluorophenyl)-1H-imidazol-5-yl)-N-(5-(6-methyl-3,6-diazabicyclo[3.1.1]heptan-3-yl)pyridin-2-yl)thiazole-4-carboxamide] | ++ (10-100 μM/min/mg as ++) | 1 to 12
CCN1C2CC1CN(c1ccc(NC(=O)c3csc(-c4c(-c5ccc(F)cc5)ncn4C4CC(F)(F)C4)n3)nc1)C2 [Compound 84, 2-(1-(3,3-difluorocyclobutyl)-4-(4-fluorophenyl)-1H-imidazol-5-yl)-N-(5-(6-ethyl-3,6-diazabicyclo[3.1.1]heptan-3-yl)pyridin-2-yl)thiazole-4-carboxamide] | ++ (10-100 μM/min/mg as ++) | 1 to 12
CN1C2CC1CN(c1ccc(NC(=O)c3csc(-c4c(-c5ccc(F)cc5)ncn4C4CC(F)(F)C4)n3)c(F)c1)C2 [Compound 86, 2-(1-(3,3-difluorocyclobutyl)-4-(4-fluorophenyl)-1H-imidazol-5-yl)-N-(2-fluoro-4-(6-methyl-3,6-diazabicyclo[3.1.1]heptan-3-yl)phenyl)thiazole-4-carboxamide] | ++ (10-100 μM/min/mg as ++) | 1 to 12
CC(C)c1noc(-c2ccc(F)cc2)c1-c1nc(C(=O)Nc2ccc(N3CC4CC(C3)N4C)cn2)cs1 [Compound 95, 2-(5-(4-fluorophenyl)-3-isopropylisoxazol-4-yl)-N-(5-(6-methyl-3,6-diazabicyclo[3.1.1]heptan-3-yl)pyridin-2-yl)thiazole-4-carboxamide] | ++ (10-100 μM/min/mg as ++) | 1 to 12
CC(C)c1onc(-c2ccc(F)cc2)c1-c1nc(C(=O)Nc2ccc(N3CC4CC(C3)N4C)cn2)cs1 [Compound 96, 2-(3-(4-fluorophenyl)-5-isopropylisoxazol-4-yl)-N-(5-(6-methyl-3,6 diazabicyclo[3.1.1]heptan-3-yl)pyridin-2-yl)thiazole-4-carboxamide] | ++ (10-100 μM/min/mg as ++) | 1 to 12
CC(C)c1noc(-c2ccc(F)cc2)c1-c1nc(C(=O)Nc2ccc(N3CC4CC(C3)N4C)cc2F)cs1 [Compound 97, N-(2-fluoro-4-(6-methyl-3,6-diazabicyclo[3.1.1]heptan-3-yl)phenyl)-2-(5-(4-fluorophenyl)-3-isopropylisoxazol-4-yl)thiazole-4-carboxamide] | ++ (10-100 μM/min/mg as ++) | 1 to 12
CC(C)c1onc(-c2ccc(F)cc2)c1-c1nc(C(=O)Nc2ccc(N3CC4CC(C3)N4C)cc2F)cs1 [Compound 98, N-(2-fluoro-4-(6-methyl-3,6-diazabicyclo[3.1.1]heptan-3-yl)phenyl)-2-(3-(4-fluorophenyl)-5-isopropylisoxazol-4-yl)thiazole-4-carboxamide] | ++ (10-100 μM/min/mg as ++) | 1 to 12
[2H]C([2H])([2H])N1CC(c2ccc(NC(=O)c3csc(-c4c(-c5ccc(F)cc5)ncn4C(C)C)n3)nc2)C1 [Compound 108, 2-[5-(4-fluorophenyl)-3-isopropyl-imidazol-4-yl]-N-[5-[1-(trideuteriomethyl)azetidin-3-yl]-2-pyridyl]thiazole-4-carboxamide] | ++ (10-100 μM/min/mg as ++) | 1 to 12

Other lines, results leading:

Human Liver Microsome (μM/min/mg) [1] | IC50 [2] [nM] | SMILES
++ (10-100 μM/min/mg as ++) | 1 to 12 | CC(C)n1cnc(-c2ccc(F)cc2)c1-c1nc(C(=O)Nc2ccc(N3CCP(C)(=O)CC3)cn2)cs1 [Compound 85, 2-(4-(4-fluorophenyl)-1-isopropyl-1H-imidazol-5-yl)-N-(5-(4-methyl-4-oxido-1,4-azaphosphinan-1-yl)pyridin-2-yl)thiazole-4-carboxamide]
++ (10-100 μM/min/mg as ++) | 1 to 12 | CC(C)c1onc(-c2ccc(F)cc2)c1-c1nc(C(=O)Nc2ccc(C3CN(C)C3)cc2F)cs1 [Compound 88, N-(2-fluoro-4-(1-methylazetidin-3-yl)phenyl)-2-(3-(4-fluorophenyl)-5-isopropylisoxazol-4-yl)thiazole-4-carboxamide]
++ (10-100 μM/min/mg as ++) | 1 to 12 | CC(C)c1onc(-c2ccc(F)cc2)c1-c1nc(C(=O)Nc2ccc(C3CN(C)C3)cn2)cs1 [Compound 90, 2-(3-(4-fluorophenyl)-5-isopropylisoxazol-4-yl)-N-(5-(1-methylazetidin-3-yl)pyridin-2-yl)thiazole-4-carboxamide]
++ (10-100 μM/min/mg as ++) | 1 to 12 | CCN1CC(c2ccc(NC(=O)c3csc(-c4c(-c5ccc(F)cc5)ncn4C(C)C)n3)nc2)C1 [Compound 91, N-(5-(1-ethylazetidin-3-yl)pyridin-2-yl)-2-(4-(4-fluorophenyl)-1-isopropyl-1H-imidazol-5-yl)thiazole-4-carboxamide]
++ (10-100 μM/min/mg as ++) | 12 to 150 | CC(C)c1onc(-c2ccc(F)cc2)c1-c1nc(C(=O)Nc2ccc(C3COC3)cc2F)cs1 [Compound 92, N-(2-fluoro-4-(oxetan-3-yl)phenyl)-2-(3-(4-fluorophenyl)-5-isopropylisoxazol-4-yl)thiazole-4-carboxamide]
++ (10-100 μM/min/mg as ++) | 1 to 12 | CC(C)c1noc(-c2ccc(F)cc2)c1-c1nc(C(=O)Nc2ccc(C3COC3)cn2)cs1 [Compound 93, 2-(5-(4-fluorophenyl)-3-isopropylisoxazol-4-yl)-N-(5-(oxetan-3-yl)pyridin-2-yl)thiazole-4-carboxamide]
++ (10-100 μM/min/mg as ++) | 1 to 12 | CC(C)c1onc(-c2ccc(F)cc2)c1-c1nc(C(=O)Nc2ccc(C3COC3)cn2)cs1 [Compound 94, 2-(3-(4-fluorophenyl)-5-isopropylisoxazol-4-yl)-N-(5-(oxetan-3-yl)pyridin-2-yl)thiazole-4-carboxamide]
++ (10-100 μM/min/mg as ++) | 1 to 12 | CC(C)n1cnc(-c2ccc(F)cc2)c1-c1nc(C(=O)Nc2ccc(N3CCOCC3)cn2)cs1 [Compound 99, 2-(4-(4-fluorophenyl)-1-isopropyl-1H-imidazol-5-yl)-N-(5-morpholinopyridin-2-yl)thiazole-4-carboxamide]
++ (10-100 μM/min/mg as ++) | 1 to 12 | CC(C)n1cnc(-c2ccc(F)cc2)c1-c1nc(C(=O)Nc2ccc(N3CCOCC3)cc2F)cs1 [Compound 100, N-(2-fluoro-4-morpholinophenyl)-2-(4-(4-fluorophenyl)-1-isopropyl-1H-imidazol-5-yl) thiazole-4-carboxamide]
++ (10-100 μM/min/mg as ++) | 12 to 150 | CC(C)n1cnc(-c2ccc(F)cc2)c1-c1nc(C(=O)Nc2ccc(C3CN(C)C3)cn2)co1 [Compound 102, 2-(4-(4-fluorophenyl)-1-isopropyl-1H-imidazol-5-yl)-N-(5-(1-methylazetidin-3-yl)pyridin-2-yl)oxazole-4-carboxamide]
